In brackets after ≈: the same amount, converted by molar mass. Where two headings read alike, the source gives them in different places.
Experiments:
Type in all cases: physicochemical
[1] = MF solubility in cyclodextrin solutions; conditions: 3 mM citrate buffer pH 4.5
Description: Compositions of mometasone furoate 6 mg/ml were prepared in duplicate with a 0.05, […], and 0.2 M of four different cyclodextrins: an unsubstituted gamma cyclodextrin, a sulfobutyl ether (SBE) beta cyclodextrin (Captisol), and two substituted SBE gamma cyclodextrins. Only 0.05 and 0.1M cyclodextrins were evaluated for the unsubstituted gamma cyclodextrin. All compositions were prepared in a 3 mM citrate buffer at a pH of 4.5. The compositions were placed on a roller mixer (Stuart Scientific SRT233 rpm rise/fall 16 mm) protected from light and mixed for about three days. After the three day equilibration, the compositions were filtered using a 0.22 micrometer PVDF syringe filter and analyzed by HPLC.

[2] = Microemulsion equilibrium solubility determination of mometasone furoate; conditions: for concentration of mometasone furoate achieved: 5% MIGLYOL; for solubility at 72 h: SOLUTOL HS-15-based microemulsion, aqueous with cosolvent or surfactant or cyclodextrin, thermodynamic from solid
Description: The equilibrium solubility of mometasone furoate is determined in SOLUTOL® HS-15-based microemulsion composition composed of 20% of SOLUTOL® HS-15 with varying amounts of different oils (FIG. 2, Table 2). An excess amount of the drug is added in the solutions after water had been added. The vials is shaken over a 72 hour period. The solutions is centrifuged and filtered at various time intervals prior to analysis of the samples by HPLC. The drug solubility ranged from 300 mcg/ml to 600 mcg/g. Alternative oils are also explored (Table 3).
The concentration was ˜519 mcg/ml in a similar composition where PBS was replaced with water. To achieve a concentration of exactly 500 mcg/ml, roughly 5 mg of the drug was weighed and added to a mixture of 2 g of SOLUTOL® HS-15 and 0.5 g of MIGLYOL® 812, that was previously mixed using a magnetic stir bar. After the drug was dissolved in the pre-concentrate, 7.5 g of distilled water was added to the above mix to formulate a microemulsion of mometasone furoate.

[3] = Micellar solubility determination of MF in 10% surfactant solutions in water; conditions: for solubility: 10% w/w excipient solution in water, aqueous with cosolvent or surfactant or cyclodextrin, thermodynamic from solid
Description: To determine the solubility of MF in various solutions, various MF solutions are prepared by measuring each excipient into a beaker at a 10% w/w concentration. If needed, the excipients are melted using a water bath maintained at 65° C. for approximately 30 minutes. The composition is q.s. to 50 g with water and mixed with an overhead/lightening mixer. Approximately 50-60 mg of anhydrous mometasone furoate anhydrous is added into each mixture. The solutions are mixed at a low speed on a shaker (Eberbacher) for about 48 to about 72 hours. Approximately 20 mL of each suspension are removed and centrifuged at 1200 rpm for 12 minutes. Approximately 5 mL of the supernatant is filtered using a 0.22 μm syringe filter. A 1 mL sample is taken from each filtered sample, diluted, and assayed using an HPLC.

[4] = MF solubility in cyclodextrin solutions; conditions: 3 mM citrate buffer pH 4.5; remark: listed apart in the source
[5] = Microemulsion equilibrium solubility determination of mometasone furoate; conditions: POLOXAMER 407-based microemulsion, aqueous with cosolvent or surfactant or cyclodextrin, thermodynamic from solid, microemulsion: ethyl laurate 5% w/w, POLOXAMER 407 10% w/w; read-out: MF Solubility
[6] = Effect of additives on MF solubility in 0.2 M Captisol solution; conditions: aqueous with cosolvent or surfactant or cyclodextrin
Description: A stock solution of 0.2 M Captisol (SBE beta cyclodextrin) was prepared. Table 5 and FIG. 4 list the effect of various additives on the MF solubility of this solution: […]

[7] = anhydrous MF, 10% w/w CREMOPHOR RH 40 (polyoxyl 40 hydrogenated castor oil) in water
[8] = anhydrous MF, 10% w/w SOLUTOL HS 15 (polyethylene glycol 660-12 hydroxystearate) in water
[9] = anhydrous MF, 10% w/w TWEEN 80 (polysorbate 80) in water

- Concentration of MF in solutions with cyclodextrins ([1]; Captisol (SBE beta-CD) 0.05M, three day equilibration): 84 µg/mL
- Concentration of MF in solutions with cyclodextrins ([1]; Captisol (SBE beta-CD) 0.2M): 261 µg/mL
- Concentration of MF in solutions with cyclodextrins ([1]; SBE(6.1) gamma-CD 0.05M): 262 µg/mL
- Concentration of MF in solutions with cyclodextrins ([1]; SBE(6.1) gamma-CD 0.2M): 1840 µg/mL
- Concentration of MF in solutions with cyclodextrins ([1]; SBE(6.2) gamma-CD 0.05M): 250 µg/mL
- Concentration of MF in solutions with cyclodextrins ([1]; SBE(6.2) gamma-CD 0.2M): 1940 µg/mL
- Concentration of MF in solutions with cyclodextrins ([1]; unsubstituted gamma-CD 0.05M): 117 µg/mL
- Concentration of MF in solutions with cyclodextrins ([1]; unsubstituted gamma-CD 0.1M): 249 µg/mL
- concentration of mometasone furoate achieved ([2]; 20% w/w SOLUTOL HS-15, 75% phosphate buffer system (PBS)): 538 µg/mL
- concentration of mometasone furoate achieved ([2]; 20% w/w SOLUTOL HS-15, PBS replaced with water): ~519 µg/mL
- solubility at 72 h ([2]; 20% SOLUTOL HS-15 microemulsions with varying amounts of different oils, 72 hour shaking, read-out: drug solubility (equilibrium)): 300 to 600 µg/mL (≈ 575 to 1150 µM)
- solubility at 72 h ([2]; microemulsion Example 1: MIGLYOL 812 4% w/w, SOLUTOL HS 15 20% w/w, read-out: Solubilized MF): 502 µg/mL (≈ 963 µM)
- solubility at 72 h ([2]; microemulsion Example 2: MIGLYOL 812 5% w/w, SOLUTOL HS 15 20% w/w, read-out: Solubilized MF): 538 µg/mL (≈ 1030 µM)
- solubility at 72 h ([2]; microemulsion Example 4: MIGLYOL 840 4% w/w, SOLUTOL HS 15 20% w/w, read-out: Solubilized MF): 540 µg/mL (≈ 1040 µM)
- solubility at 72 h ([2]; microemulsion Example 5: CAPRYOL 3% w/w, SOLUTOL HS 15 20% w/w, read-out: Solubilized MF): 422 µg/mL (≈ 809 µM)
- solubility at 72 h ([2]; microemulsion Example 6: corn oil 3% w/w, SOLUTOL HS 15 20% w/w, read-out: Solubilized MF): 408 µg/mL (≈ 782 µM)
- solubility at 72 h ([2]; microemulsion Example 7: oleic acid 2% w/w, SOLUTOL HS 15 20% w/w, read-out: Solubilized MF): 323 µg/mL (≈ 619 µM)
- solubility at 72 h ([2]; microemulsion Example 8: soybean oil 1% w/w, SOLUTOL HS 15 20% w/w, read-out: Solubilized MF): 375 µg/mL (≈ 719 µM)
- solubility at 72 h ([2]; microemulsion Example 9: soybean oil 2% w/w, SOLUTOL HS 15 20% w/w, read-out: Solubilized MF): 397 µg/mL (≈ 761 µM)
- solubility at 72 h ([2]; microemulsion: ethyl laurate 5% w/w, polyethylene glycol 660-12 hydroxystearate 20% w/w, read-out: MF Solubility): 540 µg/mL (≈ 1040 µM)
- drug concentration determined by HPLC ([2]; about 5 mg drug dissolved in 2 g SOLUTOL HS-15 + 0.5 g MIGLYOL 812, then 7.5 g distilled water, target 500 mcg/ml): 500 µg/mL
- solubility ([3]; 10% Vitamin E TPGS in water): ~500 µg/mL (≈ 959 µM)
- solubility [3, 7]: 180 to 200 µg/mL (≈ 345 to 384 µM)
- solubility ([3]; anhydrous MF, 10% w/w LUTROL F127 (poloxamer 407) in water): 27 µg/mL (≈ 51.8 µM)
- solubility [3, 8]: 180 to 200 µg/mL (≈ 345 to 384 µM)
- solubility [3, 9]: 180 to 200 µg/mL (≈ 345 to 384 µM)
- solubility ([3]; anhydrous MF, 10% w/w Vitamin E TPGS (d-α tocopheryl PEG 1000 succinate) in water): 499 µg/mL (≈ 957 µM)
- solubility ([3]; solutions with 10% polyoxamers): < 30 µg/mL
- solubility ([3]; solutions with 10% polyvinylpyrrolidones): < 30 µg/mL
- MF Solubility [3, 7]: 189 µg/mL
- MF Solubility [3, 8]: 184 µg/mL
- MF Solubility [3, 9]: 199 µg/mL
- Concentration of MF in solutions with cyclodextrins ([4]; Captisol (SBE beta-CD) 0.1M): 152 µg/mL
- Concentration of MF in solutions with cyclodextrins ([4]; SBE(6.1) gamma-CD 0.1M): 626 µg/mL
- Concentration of MF in solutions with cyclodextrins ([4]; SBE(6.2) gamma-CD 0.1M): 569 µg/mL
- solubility at 72 h [5]: 90 µg/mL (≈ 173 µM)
- solubility ([6]; 0.2 M Captisol + 0.01% w/v Polysorbate 80): 235 µg/mL
- solubility ([6]; 0.2 M Captisol + 0.02% w/v Benzalkonium Chloride): 243 µg/mL
- solubility ([6]; 0.2 M Captisol + 0.1% w/v HPMC): 258 µg/mL
- solubility ([6]; 0.2 M Captisol + 0.1% w/v Na-CMC): 242 µg/mL
- solubility ([6]; 0.2 M Captisol + 0.1% w/v PVP-30): 290 µg/mL
- solubility ([6]; 0.2 M Captisol + 1% v/v EtOH): 236 µg/mL
- solubility ([6]; 0.2 M Captisol + 2.1% w/v Glycerin): 220 µg/mL
- solubility ([6]; 0.2 M Captisol + 10% v/v EtOH): 121 µg/mL
- solubility ([6]; 0.2 M Captisol + 10% w/v Propylene Glycol): 107 µg/mL
SMILES: C[C@@H]1C[C@H]2[C@@H]3CCC4=CC(=O)C=C[C@]4(C)[C@@]3(Cl)[C@@H](O)C[C@]2(C)[C@@]1(OC(=O)c1ccco1)C(=O)CCl [MF, mometasone furoate]

Reference: US20120022032A1, “CORTICOSTEROID COMPOSITIONS AND METHODS OF TREATMENTS THEREOF” (priority 2008, published 2012)
